Each cell line was assayed with N#CC1(c2ccc(NC(=O)c3cccnc3NCc3ccncc3)cc2)CCCC1 [Apatinib] + CS(=O)(=O)CCNCc1ccc(-c2ccc3ncnc(Nc4ccc(OCc5cccc(F)c5)c(Cl)c4)c3c2)o1 [Lapatinib] (partner 2 µM) (assay: relative viability (nuclei count vs DMSO), 5 days (fraction); higher = more cells survive). Details: first compound 8 µM.
How it was run: (§1)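 Five library-drug doses in √10 steps were combined with a fixed anchor-drug dose, or a single drug was given alone, by pin tool to lung cancer cell lines in 1536-well plates the day after seeding. Nuclei were stained and counted after 5 days. Relative viability is the nuclei count in treated wells over that in vehicle wells, taken as the median of duplicate plates.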
Cell Line NCI-H2087 has a relative viability of 0.891.
In the case of NCI-H2126, the relative viability is reported as 0.78.

These cell lines were tested with CN(C)C(=N)NC(=N)N [Metformin] + CS(=O)(=O)N1CCN(Cc2cc3nc(-c4cccc5[nH]ncc45)nc(N4CCOCC4)c3s2)CC1 [Pictilisib] (partner 1 µM) in the same assay as above. Details: first compound 10 µM.
How it was run: as §1
Work on NCI-H23 yielded a relative viability of 0.505.
For NCI-H322M, the relative viability was 0.471.
Work on NCI-H358 yielded a relative viability of 0.356.
With NCI-H520 the relative viability was 0.302.
For NCI-H596, the relative viability was 0.431.
NCI-H647 was tested, and the relative viability was 0.469.
Work on NCI-H650 yielded a relative viability of 0.96.
Work on NCI-H661 yielded a relative viability of 0.406.
Cell Line NCI-H727 has a relative viability of 0.389.
NCI-H838 gave a relative viability of 0.535.
Cell Line NCI-H1299 has a relative viability of 0.834.
Work on NCI-H1355 yielded a relative viability of 0.503.
NCI-H1395 showed a relative viability of 0.64.
In the case of NCI-H1437, the relative viability is reported as 0.671.
With NCI-H1563 the relative viability was 0.605.
NCI-H1650 was tested, and the relative viability was 0.791.
NCI-H1651 was tested, and the relative viability was 0.762.
NCI-H1666 gave a relative viability of 0.481.
NCI-H1703 was tested, and the relative viability was 0.291.
Work on NCI-H1734 yielded a relative viability of 0.464.
NCI-H1755 gave a relative viability of 0.366.
Cell Line NCI-H1793 has a relative viability of 0.29.
Work on NCI-H1944 yielded a relative viability of 0.324.
NCI-H1975 was tested, and the relative viability was 0.285.
NCI-H1993 was tested, and the relative viability was 0.672.
Work on NCI-H2009 yielded a relative viability of 0.795.
For NCI-H2085, the relative viability was 0.408.
For NCI-H2087, the relative viability was 0.909.
Work on NCI-H2126 yielded a relative viability of 0.519.

Same assay, conditions: first compound 31.62 µM
NCI-H23 gave a relative viability of 0.604.
With NCI-H322M the relative viability was 0.52.
With NCI-H358 the relative viability was 0.424.
NCI-H520 was tested, and the relative viability was 0.31.
NCI-H596 was tested, and the relative viability was 0.479.
In the case of NCI-H647, the relative viability is reported as 0.535.
With NCI-H650 the relative viability was 1.01.
NCI-H661 showed a relative viability of 0.464.
Work on NCI-H727 yielded a relative viability of 0.514.
Work on NCI-H838 yielded a relative viability of 0.543.
NCI-H1299 gave a relative viability of 0.98.
In the case of NCI-H1355, the relative viability is reported as 0.439.
NCI-H1395 showed a relative viability of 0.728.
NCI-H1437 showed a relative viability of 0.729.
NCI-H1563 showed a relative viability of 0.651.
NCI-H1650 gave a relative viability of 0.702.
NCI-H1651 was tested, and the relative viability was 0.887.
NCI-H1666 was tested, and the relative viability was 0.536.
For NCI-H1703, the relative viability was 0.309.
NCI-H1734 was tested, and the relative viability was 0.48.
For NCI-H1755, the relative viability was 0.402.
Work on NCI-H1792 yielded a relative viability of 0.398.
NCI-H1793 was tested, and the relative viability was 0.399.
With NCI-H1915 the relative viability was 1.08.
NCI-H1944 gave a relative viability of 0.351.
In the case of NCI-H1975, the relative viability is reported as 0.327.
NCI-H1993 showed a relative viability of 0.783.
NCI-H2009 was tested, and the relative viability was 0.922.
In the case of NCI-H2023, the relative viability is reported as 0.269.
NCI-H2085 gave a relative viability of 0.492.
Cell Line NCI-H2087 has a relative viability of 1.01.
NCI-H2126 showed a relative viability of 0.474.

Same assay, conditions: first compound 100 µM
For NCI-H23, the relative viability was 0.527.
NCI-H322M gave a relative viability of 0.491.
In the case of NCI-H358, the relative viability is reported as 0.44.
For NCI-H520, the relative viability was 0.28.
For NCI-H596, the relative viability was 0.468.
NCI-H647 was tested, and the relative viability was 0.479.
With NCI-H650 the relative viability was 1.12.
NCI-H661 showed a relative viability of 0.485.
NCI-H727 gave a relative viability of 0.6.
NCI-H838 showed a relative viability of 0.477.
In the case of NCI-H1299, the relative viability is reported as 0.9.
Work on NCI-H1355 yielded a relative viability of 0.438.
NCI-H1395 was tested, and the relative viability was 0.653.
With NCI-H1437 the relative viability was 0.406.
Work on NCI-H1563 yielded a relative viability of 0.62.
For NCI-H1650, the relative viability was 0.721.
Work on NCI-H1651 yielded a relative viability of 0.674.
NCI-H1666 was tested, and the relative viability was 0.352.
With NCI-H1703 the relative viability was 0.29.
NCI-H1734 showed a relative viability of 0.462.
NCI-H1755 was tested, and the relative viability was 0.471.
NCI-H1792 was tested, and the relative viability was 0.393.
Cell Line NCI-H1793 has a relative viability of 0.304.
With NCI-H1915 the relative viability was 0.95.
NCI-H1944 gave a relative viability of 0.371.
Cell Line NCI-H1975 has a relative viability of 0.306.
In the case of NCI-H1993, the relative viability is reported as 0.778.
In the case of NCI-H2009, the relative viability is reported as 0.846.
In the case of NCI-H2023, the relative viability is reported as 0.262.
In the case of NCI-H2085, the relative viability is reported as 0.472.
NCI-H2087 gave a relative viability of 0.772.
In the case of NCI-H2126, the relative viability is reported as 0.514.

Same assay, conditions: first compound 316.23 µM
For NCI-H23, the relative viability was 0.614.
With NCI-H322M the relative viability was 0.469.
Cell Line NCI-H358 has a relative viability of 0.332.
With NCI-H520 the relative viability was 0.258.
For NCI-H596, the relative viability was 0.452.
NCI-H647 was tested, and the relative viability was 0.441.
NCI-H650 was tested, and the relative viability was 1.06.
Cell Line NCI-H661 has a relative viability of 0.552.
In the case of NCI-H727, the relative viability is reported as 0.317.
NCI-H838 was tested, and the relative viability was 0.494.
NCI-H1299 showed a relative viability of 0.645.
Cell Line NCI-H1355 has a relative viability of 0.435.
For NCI-H1395, the relative viability was 0.81.
NCI-H1437 gave a relative viability of 0.629.
Work on NCI-H1563 yielded a relative viability of 0.624.
NCI-H1650 was tested, and the relative viability was 0.607.
Work on NCI-H1651 yielded a relative viability of 0.883.
NCI-H1666 was tested, and the relative viability was 0.356.
For NCI-H1703, the relative viability was 0.291.
NCI-H1734 gave a relative viability of 0.407.
In the case of NCI-H1755, the relative viability is reported as 0.412.
In the case of NCI-H1792, the relative viability is reported as 0.47.
NCI-H1793 showed a relative viability of 0.268.
Cell Line NCI-H1915 has a relative viability of 0.919.
Cell Line NCI-H1944 has a relative viability of 0.293.
NCI-H1975 was tested, and the relative viability was 0.314.
NCI-H1993 showed a relative viability of 0.699.
Work on NCI-H2009 yielded a relative viability of 0.779.
Work on NCI-H2085 yielded a relative viability of 0.439.
With NCI-H2087 the relative viability was 0.782.
In the case of NCI-H2126, the relative viability is reported as 0.472.

Same assay, conditions: first compound 1000 µM
NCI-H23 showed a relative viability of 0.654.
Cell Line NCI-H322M has a relative viability of 0.43.
NCI-H358 showed a relative viability of 0.378.
NCI-H520 gave a relative viability of 0.361.
With NCI-H596 the relative viability was 0.421.
NCI-H647 gave a relative viability of 0.292.
In the case of NCI-H650, the relative viability is reported as 0.978.
NCI-H661 gave a relative viability of 0.518.
In the case of NCI-H727, the relative viability is reported as 0.451.
For NCI-H838, the relative viability was 0.682.
NCI-H1299 was tested, and the relative viability was 0.479.
NCI-H1355 was tested, and the relative viability was 0.504.
In the case of NCI-H1395, the relative viability is reported as 0.593.
Cell Line NCI-H1437 has a relative viability of 0.757.
Cell Line NCI-H1563 has a relative viability of 0.646.
NCI-H1650 gave a relative viability of 0.504.
NCI-H1651 was tested, and the relative viability was 0.876.
NCI-H1666 showed a relative viability of 0.467.
NCI-H1703 showed a relative viability of 0.226.
Work on NCI-H1734 yielded a relative viability of 0.495.
Work on NCI-H1755 yielded a relative viability of 0.336.
NCI-H1792 gave a relative viability of 0.428.
For NCI-H1793, the relative viability was 0.38.
For NCI-H1915, the relative viability was 0.933.
For NCI-H1944, the relative viability was 0.338.
With NCI-H1975 the relative viability was 0.321.
With NCI-H1993 the relative viability was 0.747.
Cell Line NCI-H2009 has a relative viability of 0.763.
For NCI-H2023, the relative viability was 0.252.
With NCI-H2085 the relative viability was 0.545.
NCI-H2087 was tested, and the relative viability was 0.957.
With NCI-H2126 the relative viability was 0.485.

The cell lines below were run with CN(C)C(=N)NC(=N)N [Metformin] (assay: relative viability (nuclei count vs DMSO), 5 days (fraction); higher = more cells survive). Details: 10 µM.
How it was run: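 Acceptance criteria were a control CV below 25% and at least one doubling per plate. Lung cancer cell lines in 1536-well plates got five library-drug doses (not always all listed) √10 apart by pinning and were left 5 days with no medium change. Viability divides treated-well nuclei by vehicle-well nuclei and is the median across plates. Nuclei were counted by MetaXpress from 4× Hoechst images.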
NCI-H23 showed a relative viability of 0.919.

Reference: the supplement of paper PMC10307832
